According to patent publication US10357036B2, “Compounds for controlling arthropods” (priority 2015, dated 2019):
Where two headings read alike, the source gives them in different places.

Assays:
Tetranychus urticae = Tetranychus urticae spray test, OP-resistant (bean leaf discs); assay type: in vivo; details: 100 g/ha; after 6 days
Procedure: (§1) After 6 days, the efficacy in % is determined.

Phaedon cochleariae = Phaedon cochleariae spray test; details: for pest or weed control at 100 g/ha: Phaedon cochleariae, 168 h, read-out: efficacy; for efficacy: 100 g/ha, after 7 days
Meloidogyne incognita = Meloidogyne incognita test; assay type: in vivo; details: 20 ppm; after 14 days
Procedure: • Solvent: 125.0 parts by weight of acetone
To produce a suitable active compound preparation, 1 part by weight of active compound is mixed with the stated amount of solvent and the concentrate is diluted to the desired concentration with water.
Vessels are filled with sand, active compound solution, an egg/larvae suspension of the southern root-knot nematode (Meloidogyne incognita) and lettuce seeds. The lettuce seeds germinate and the plants develop. The galls develop on the roots.
After 14 days, the nematicidal efficacy in % is determined by the formation of galls. 100% means that no galls were found; 0% means that the number of galls on the treated plants corresponds to the untreated control.

Ctenocephalides felis [1] = assay: Ctenocephalides felis oral test; assay type: in vivo; details: 100 ppm in citrated cattle blood; after 2 days
Musca domestica = Musca domestica test; assay type: in vivo; details: 100 ppm; adult houseflies; after 2 days
Procedure: (§2) • Solvent: dimethyl sulfoxide
To produce a suitable active ingredient formulation, 10 mg of active ingredient are mixed with 0.5 ml of dimethyl sulfoxide, and the concentrate is diluted with water to the desired concentration.
Vessels containing a sponge treated with sugar solution and the active ingredient formulation of the desired concentration are populated with 10 adult houseflies (Musca domestica).

Boophilus microplus = Boophilus microplus injection test; assay type: in vivo; details: 20 μg/animal; assessed after 7 days
Procedure: as §2
1 μl of the active ingredient solution is injected into the abdomen of 5 engorged adult female cattle ticks (Boophilus microplus). The animals are transferred into dishes and kept in a climate-controlled room.

Spodoptera frugiperda = Spodoptera frugiperda spray test; assay type: in vivo; details: 100 g/ha, after 7 days; for pest or weed control at 100 g/ha: Spodoptera frugiperda, 168 h, read-out: efficacy
Rhipicephalus sanguineus = Rhipicephalus sanguineus in vitro contact test with adult brown dog ticks; assay type: in vivo; details: application rate 5 μg/cm^2 (=500 g/ha); after 48 h; dead or moribund ticks
How it was run: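 Adult Rhipicephalus sanguineus (5-10 per tube) held in glass tubes coated with compound from acetone solution, 900 ppm giving 5 μg/cm^2, in the dark at room temperature. After 48 h ticks put on a 45-50° C hotplate up to 5 min; motionless or uncoordinated ticks scored dead/moribund as % efficacy.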

Ctenocephalides felis [2] = assay: Ctenocephalides felis in vitro contact test with adult cat fleas; assay type: in vivo; details: application rate 5 μg/cm^2 (=500 g/ha); after 48 h; dead or moribund fleas
How it was run: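 Glass tubes were coated with compound in acetone (900 ppm solution gives 5 μg/cm²), dried, then loaded with 5–10 adult cat fleas. Held horizontal at room temperature and ambient humidity for 48 h. Efficacy is the % of fleas dead or moribund (motionless or uncoordinated after knock-down).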

Myzus persicae = Myzus persicae spray test (Chinese cabbage leaf discs); assay type: in vivo; details: 100 g/ha; after 6 days
Procedure: as §1

[3] = system: cattle ticks (Boophilus microplus) Parkhurst strain, SP-resistant; assay: Boophilus microplus dip test; assay type: in vivo; details: 100 ppm; assessed after 7 days
Procedure: • Test animals: cattle ticks (Boophilus microplus) Parkhurst strain, SP-resistant • Solvent: dimethyl sulfoxide
10 mg of active ingredient are dissolved in 0.5 ml of dimethyl sulfoxide. To produce a suitable formulation, the active ingredient solution is diluted with water to the concentration desired in each case.
This active ingredient formulation is pipetted into tubes. 8-10 engorged adult female cattle ticks (Boophilus microplus) are transferred into a further tube with holes. The tube is immersed into the active ingredient formulation, and all the ticks are completely wetted. After the liquid has run out, the ticks are transferred on filter discs into plastic dishes and stored in a climate-controlled room.
Efficacy is assessed after 7 days by laying of fertile eggs. Eggs which are not visibly fertile are stored in a climate-controlled cabinet until the larvae hatch after about 42 days. An efficacy of 100% means that none of the ticks has laid any fertile eggs; 0% means that all the eggs are fertile.

[4] = reversed-phase C18 HPLC column, logP, HPLC, C18, acetonitrile/water with formic acid (note a)
[5] = reversed-phase C18 HPLC column, logP^a, HPLC-MS method a)

| chromatographic logP [4] | chromatographic logP [5] | chromatographic logP (reversed-phase C18 HPLC column, logP^a, HPLC-MS method a), reversed-phase column (C18)) | SMILES | efficacy (Tetranychus urticae) [%] | pest or weed control at 100 g/ha (Phaedon cochleariae) [%] | efficacy (Phaedon cochleariae) [%] | nematicidal efficacy (formation of galls) (Meloidogyne incognita) [%] | efficacy (rate of extermination) (Ctenocephalides felis [1]) [%] | efficacy (rate of extermination) (Musca domestica) [%] | efficacy (laying of fertile eggs) (Boophilus microplus) [%] | pest or weed control at 100 g/ha (Spodoptera frugiperda) [%] | efficacy (Rhipicephalus sanguineus) [%] | efficacy (Ctenocephalides felis [2]) [%] | efficacy (Spodoptera frugiperda) [%] | efficacy (Myzus persicae) [%] | efficacy (laying of fertile eggs) [3] [%] |
| --- | --- | --- | --- | --- | --- | --- | --- | --- | --- | --- | --- | --- | --- | --- | --- | --- |
| 3.65 | 3.65 |  | CCC(=O)NCc1cc(-c2cnn(-c3c(Cl)cc(C(F)(C(F)(F)F)C(F)(F)F)cc3S(C)(=O)=O)c2)ccc1F [Ia-46, N-(5-{1-[2-chloro-4-(1,1,1,2,3,3,3-heptafluoropropan-2-yl)-6-(methylsulfonyl)phenyl]-1H-pyrazol-4-yl}-2-fluorobenzyl)propanamide] | 70 |  |  |  |  |  |  |  |  |  |  |  |  |
| 3.52 | 3.52 |  | CCC(=O)NCc1cc(-c2cnn(-c3c(Cl)cc(C(F)(C(F)(F)F)C(F)(F)F)cc3[S+](C)[O-])c2)ccc1F (stereo not drawn) [Ia-45, N-(5-{1-[2-chloro-4-(1,1,1,2,3,3,3-heptafluoropropan-2-yl)-6-(methylsulfinyl)phenyl]-1H-pyrazol-4-yl}-2-fluorobenzyl)propanamide] |  | 100 |  |  |  |  |  |  |  |  |  |  |  |
|  |  |  | CC(=O)NCc1cccc(-c2cnn(-c3c(Cl)cc(C(F)(C(F)(F)F)C(F)(F)F)cc3C#N)c2)c1 [Ia-102] | 90 |  | 100 | 100 |  |  |  |  |  |  |  |  |  |
|  |  |  | CC(=O)N(C)Cc1cccc(-c2cnn(-c3c(Cl)cc(C(F)(C(F)(F)F)C(F)(F)F)cc3Cl)c2)c1 [Ia-42] | 100 |  | 100 | 90 | 100 | 80 | 100 |  |  |  |  |  |  |
|  |  |  | CC(=O)N(C)Cc1cc(-c2cnn(-c3c(Cl)cc(C4(C(F)(F)F)CC4)cc3Cl)c2)ccc1F [Ia-125] |  |  |  | 100 |  |  |  |  |  |  |  |  |  |
| 4.8 | 4.8 |  | O=C(NCc1cc(-c2cnn(-c3c(Cl)cc(C(F)(C(F)(F)F)C(F)(F)F)cc3Cl)c2)ccc1Cl)C1CC1 [Ia-25, N-(2-chloro-5-{1-[2,6-dichloro-4-(1,1,1,2,3,3,3-heptafluoropropan-2-yl)phenyl]-1H-pyrazol-4-yl}benzyl)cyclopropanecarboxamide] |  |  |  |  | 100 | 100 | 100 | 100 | 80 | 100 |  |  |  |
|  |  |  | CCC(=O)NCc1c(F)ccc(-c2cnn(-c3c(Cl)cc(C(F)(C(F)(F)F)C(F)(F)F)cc3C(F)F)c2)c1F [Ia-141] | 100 |  | 100 | 90 | 100 | 100 | 100 |  | 100 |  | 100 |  |  |
| 5.21 |  |  | CCS(=O)(=O)N(C)Cc1cc(-c2cnn(-c3c(Cl)cc(C(F)(C(F)(F)F)C(F)(F)F)cc3Cl)c2)ccc1Cl [Ic-03, N-(2-chloro-5-{1-[2,6-dichloro-4-(1,1,1,2,3,3,3-heptafluoropropan-2-yl)phenyl]-1H-pyrazol-4-yl}benzyl)-N-methylethanesulfonamide] |  | 100 |  |  |  |  |  | 100 |  |  |  |  |  |
|  |  |  | CC(=O)NCc1cc(-c2cnn(-c3c(C)cc(C(F)(C(F)(F)F)C(F)(F)F)cc3Cl)c2)ccc1F [Ia-65] | 100 |  | 100 |  | 100 | 100 | 100 |  | 100 | 100 | 100 | 90 | 100 |
| 3.94 |  |  | CC(=O)NCc1cc(-c2cn(-c3c(Cl)cc(C(F)(C(F)(F)F)C(F)(F)F)cc3Cl)nn2)ccc1Cl [I-T7-01, N-(2-chloro-5-{1-[2,6-dichloro-4-(1,1,1,2,3,3,3-heptafluoropropan-2-yl)phenyl]-1H-1,2,3-triazol-4-yl}benzyl)acetamide] | 90 | 100 |  |  |  |  |  | 100 |  |  |  |  |  |
| 4.28 |  | 4.33 | N#CCC(=O)NCc1cc(-c2cnn(-c3c(Cl)cc(C(F)(C(F)(F)F)C(F)(F)F)cc3Br)c2)ccc1Cl [Ia-137, N-(5-{1-[2-bromo-6-chloro-4-(1,1,1,2,3,3,3-heptafluoropropan-2-yl)phenyl]-1H-pyrazol-4-yl}-2-chlorobenzyl)-2-cyanoacetamide] | 100 | 100 |  |  | 100 | 100 | 100 | 100 |  | 100 |  |  |  |
| 4.29 | 4.29 |  | CCC(=O)NCc1cc(-c2cnn(-c3c(Cl)cc(C(F)(C(F)(F)F)C(F)(F)F)cc3SC)c2)ccc1F [Ia-10, N-(5-{1-[2-chloro-4-(1,1,1,2,3,3,3-heptafluoropropan-2-yl)-6-(methylsulfanyl)phenyl]-1H-pyrazol-4-yl}-2-fluorobenzyl)propanamide] | 100 | 100 |  |  | 100 | 100 | 100 | 100 | 100 | 100 |  |  |  |
| 4.84 |  |  | CCC(=O)NC1CCc2ccc(-c3cnn(-c4c(Cl)cc(C(F)(C(F)(F)F)C(F)(F)F)cc4OC(F)(F)F)c3)cc21 (stereo not drawn) [I-Tc-01, N-(6-{1-[2-chloro-4-(1,1,1,2,3,3,3-heptafluoropropan-2-yl)-6-(trifluoromethoxy)phenyl]-1H-pyrazol-4-yl}-2,3-dihydro-1H-inden-1-yl)propanamide] |  |  |  |  | 100 |  | 100 | 100 | 100 |  |  |  |  |
|  |  |  | CCC(=O)NCc1cc(-c2cnn(-c3c(C)cc(C(F)(C(F)(F)F)C(F)(F)F)cc3Cl)c2)ccc1F [Ia-66] | 100 |  | 100 |  | 100 | 100 | 100 |  | 100 | 100 | 100 | 70 | 95 |
| 4.65 |  |  | CCS(=O)(=O)NCc1cc(-c2cnn(-c3c(Cl)cc(C(F)(C(F)(F)F)C(F)(F)F)cc3Cl)c2)ccc1Cl [Ic-02, N-(2-chloro-5-{1-[2,6-dichloro-4-(1,1,1,2,3,3,3-heptafluoropropan-2-yl)phenyl]-1H-pyrazol-4-yl}benzyl)ethanesulfonamide] |  | 100 |  |  |  |  |  | 100 |  |  |  |  |  |
|  |  |  | CC(=O)NCc1cc(-c2cnn(-c3c(Cl)cc(C(F)(C(F)(F)F)C(F)(F)F)cc3Cl)c2)ccc1C [Ia-90] | 100 |  | 100 |  | 100 | 100 | 100 |  | 100 | 100 | 100 | 90 | 100 |
